# Test results: ChEMBL document CHEMBL1909294, “Translating clinical findings into knowledge in drug safety evaluation--drug induced liver injury prediction system (DILIps)” (PLoS Comput Biol, 2011)
# *1 amine or outer side, *2 acyl side, *3 side chain or, on linkers, in order; H or OH if unused. Where a SMILES comes first, the peptide text is derived from it. Bridges are numbered along the chain shown (N, C = ends). Roman numbers before positions name the chains, in order. [ ]: non-standard residue; d: D form. Actinocin(9to1) = Cc1c2oc3c(C)ccc(C(=O)[*:1])c3nc-2c(C(=O)[*:2])c(N)c1=O; NMeV = CN[C@H](C(=O)O)C(C)C; Sar = CNCC(=O)O
# Key:
# Hepatotoxicity [1] = system: Hepatotoxicity;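 on HepSE bilirubinemia: bilirubinemia hepatic side effect score drawn from the DILIps training data, a prediction system for drug-induced liver injury; call rule not given here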;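 on HepSE cholecystitis: Cholecystitis-related hepatic side effect score drawn from the DILIps (drug-induced liver injury prediction) training data set; call rule not given here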;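 on HepSE cholelithiasis: hepatic side effect score for cholelithiasis, drawn from the DILIps training data for predicting drug-induced liver injury; call rule not given here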;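 on HepSE cirrhosis: cirrhosis hepatic side effect score taken from the DILIps (drug-induced liver injury prediction) training set; call rule not given here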;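 on HepSE elevated liver function tests: hepatic side effect score for raised liver function tests, as recorded in the DILIps training set used for predicting drug-induced liver injury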; on HepSE hepatic failure: call rule not given here;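 on HepSE hepatomegaly: hepatic side effect score for hepatomegaly, taken from the training set of the DILIps drug-induced liver injury prediction system; call rule not given here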
# Hepatotoxicity [2] = system: Hepatotoxicity; remark: listed apart in the source;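 on HepSE bilirubinemia: bilirubinemia hepatic side effect score drawn from the DILIps training data, a prediction system for drug-induced liver injury; call rule not given here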;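 on HepSE cholecystitis: Cholecystitis-related hepatic side effect score drawn from the DILIps (drug-induced liver injury prediction) training data set; call rule not given here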;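 on HepSE cholelithiasis: hepatic side effect score for cholelithiasis, drawn from the DILIps training data for predicting drug-induced liver injury; call rule not given here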;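 on HepSE cirrhosis: cirrhosis hepatic side effect score taken from the DILIps (drug-induced liver injury prediction) training set; call rule not given here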;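 on HepSE elevated liver function tests: hepatic side effect score for raised liver function tests, as recorded in the DILIps training set used for predicting drug-induced liver injury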; on HepSE hepatic failure: call rule not given here;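 on HepSE hepatomegaly: hepatic side effect score for hepatomegaly, taken from the training set of the DILIps drug-induced liver injury prediction system; call rule not given here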
# Hepatotoxicity [3] = system: Hepatotoxicity; remark: listed apart in the source;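 on HepSE bilirubinemia: bilirubinemia hepatic side effect score drawn from the DILIps training data, a prediction system for drug-induced liver injury; call rule not given here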;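 on HepSE cholecystitis: Cholecystitis-related hepatic side effect score drawn from the DILIps (drug-induced liver injury prediction) training data set; call rule not given here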;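 on HepSE cholelithiasis: hepatic side effect score for cholelithiasis, drawn from the DILIps training data for predicting drug-induced liver injury; call rule not given here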;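 on HepSE cirrhosis: cirrhosis hepatic side effect score taken from the DILIps (drug-induced liver injury prediction) training set; call rule not given here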;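 on HepSE elevated liver function tests: hepatic side effect score for raised liver function tests, as recorded in the DILIps training set used for predicting drug-induced liver injury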; on HepSE hepatic failure: call rule not given here
# Hepatotoxicity [4] = system: Hepatotoxicity; remark: listed apart in the source;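 on HepSE bilirubinemia: bilirubinemia hepatic side effect score drawn from the DILIps training data, a prediction system for drug-induced liver injury; call rule not given here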;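 on HepSE cholecystitis: Cholecystitis-related hepatic side effect score drawn from the DILIps (drug-induced liver injury prediction) training data set; call rule not given here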;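 on HepSE cholelithiasis: hepatic side effect score for cholelithiasis, drawn from the DILIps training data for predicting drug-induced liver injury; call rule not given here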;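 on HepSE cirrhosis: cirrhosis hepatic side effect score taken from the DILIps (drug-induced liver injury prediction) training set; call rule not given here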;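 on HepSE elevated liver function tests: hepatic side effect score for raised liver function tests, as recorded in the DILIps training set used for predicting drug-induced liver injury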; on HepSE hepatic failure: call rule not given here
# Hepatotoxicity [5] = system: Hepatotoxicity; remark: listed apart in the source; on HepSE hepatic failure: call rule not given here
# Hepatotoxicity [6] = system: Hepatotoxicity; remark: listed apart in the source; on HepSE hepatic failure: call rule not given here
# Hepatotoxicity [7] = system: Hepatotoxicity; remark: listed apart in the source
# Hepatotoxicity [8] = system: Hepatotoxicity; remark: listed apart in the source
# Hepatotoxicity [9] = system: Hepatotoxicity; remark: listed apart in the source
# Hepatotoxicity [10] = system: Hepatotoxicity; remark: listed apart in the source
# Hepatotoxicity [11] = system: Hepatotoxicity; remark: listed apart in the source
# Hepatotoxicity [12] = system: Hepatotoxicity; remark: listed apart in the source
# Hepatotoxicity [13] = system: Hepatotoxicity; remark: listed apart in the source
# Hepatotoxicity [14] = system: Hepatotoxicity; remark: listed apart in the source
SMILES,HepSE_bilirubinemia (Hepatotoxicity [1]),HepSE_cholecystitis (Hepatotoxicity [2]),HepSE_cholelithiasis (Hepatotoxicity [3]),HepSE_cirrhosis (Hepatotoxicity [4]),HepSE_elevated liver function tests (Hepatotoxicity [5]),HepSE_hepatic failure (Hepatotoxicity [6]),HepSE_hepatic necrosis (Hepatotoxicity [7]),HepSE_hepatitis (Hepatotoxicity [8]),HepSE_hepatomegaly (Hepatotoxicity [9]),HepSE_jaundice (Hepatotoxicity [10]),HepSE_liver disease (Hepatotoxicity [11]),HepSE_liver fatty (Hepatotoxicity [12]),HepSE_liver function tests abnormal (Hepatotoxicity [13]),HepSE_Combined Scores (Hepatotoxicity [14]),also measured
CO[C@H]1/C=C/O[C@@]2(C)Oc3c(C)c(O)c4c(c3C2=O)C2=NC3(CCN(CC(C)C)CC3)NC2=C(NC(=O)/C(C)=C\C=C\[C@H](C)[C@H](O)[C@@H](C)[C@@H](O)[C@@H](C)[C@H](OC(C)=O)[C@@H]1C)C4=O [RIFABUTIN],,,,,,,,,,,,,,,HepSE_bilirubinemia (Hepatotoxicity [1]; Liver): 0; HepSE_cholecystitis (Hepatotoxicity [2]; Liver): 0; HepSE_cholelithiasis (Hepatotoxicity [3]; Liver): 0; HepSE_cirrhosis (Hepatotoxicity [4]; Liver): 0; HepSE_elevated liver function tests (Hepatotoxicity [5]; Liver): 0; HepSE_hepatic failure (Hepatotoxicity [6]; Liver): 0; HepSE_hepatic necrosis (Hepatotoxicity [7]; Liver): 0; HepSE_hepatitis (Hepatotoxicity [8]; Liver): 1; HepSE_hepatomegaly (Hepatotoxicity [9]; Liver): 0; HepSE_jaundice (Hepatotoxicity [10]; Liver): 0; HepSE_liver disease (Hepatotoxicity [11]; Liver): 0; HepSE_liver fatty (Hepatotoxicity [12]; Liver): 0; HepSE_liver function tests abnormal (Hepatotoxicity [13]; Liver): 0; HepSE_Combined Scores (Hepatotoxicity [14]; Liver): 1
C[N+](C)(C)CCOC(=O)CCC(=O)OCC[N+](C)(C)C [SUXAMETHONIUM],0,0,0,0,0,0,0,0,0,0,0,0,0,0,
COc1ccc2c3c1O[C@H]1C(=O)CC[C@@]4(O)[C@@H](C2)N(C)CC[C@]314 [OXYCODONE],,,,,,,,,,,,,,,HepSE_bilirubinemia (Hepatotoxicity [1]; Liver): 0; HepSE_cholecystitis (Hepatotoxicity [2]; Liver): 0; HepSE_cholelithiasis (Hepatotoxicity [3]; Liver): 0; HepSE_cirrhosis (Hepatotoxicity [4]; Liver): 0; HepSE_elevated liver function tests (Hepatotoxicity [5]; Liver): 0; HepSE_hepatic failure (Hepatotoxicity [6]; Liver): 0; HepSE_hepatic necrosis (Hepatotoxicity [7]; Liver): 0; HepSE_hepatitis (Hepatotoxicity [8]; Liver): 0; HepSE_hepatomegaly (Hepatotoxicity [9]; Liver): 1; HepSE_jaundice (Hepatotoxicity [10]; Liver): 0; HepSE_liver disease (Hepatotoxicity [11]; Liver): 0; HepSE_liver fatty (Hepatotoxicity [12]; Liver): 0; HepSE_liver function tests abnormal (Hepatotoxicity [13]; Liver): 0; HepSE_Combined Scores (Hepatotoxicity [14]; Liver): 1
CC(=O)O[C@H]1C[C@@H]2CC[C@@H]3[C@H](CC[C@@]4(C)[C@H]3C[C@H]([N+]3(C)CCCCC3)[C@@H]4OC(C)=O)[C@@]2(C)C[C@@H]1[N+]1(C)CCCCC1 [PANCURONIUM],,,,,,,,,,,,,,,HepSE_bilirubinemia (Hepatotoxicity [1]; Liver): 0; HepSE_cholecystitis (Hepatotoxicity [2]; Liver): 0; HepSE_cholelithiasis (Hepatotoxicity [3]; Liver): 0; HepSE_cirrhosis (Hepatotoxicity [4]; Liver): 0; HepSE_elevated liver function tests (Hepatotoxicity [5]; Liver): 0; HepSE_hepatic failure (Hepatotoxicity [6]; Liver): 0; HepSE_hepatic necrosis (Hepatotoxicity [7]; Liver): 0; HepSE_hepatitis (Hepatotoxicity [8]; Liver): 0; HepSE_hepatomegaly (Hepatotoxicity [9]; Liver): 0; HepSE_jaundice (Hepatotoxicity [10]; Liver): 0; HepSE_liver disease (Hepatotoxicity [11]; Liver): 0; HepSE_liver fatty (Hepatotoxicity [12]; Liver): 0; HepSE_liver function tests abnormal (Hepatotoxicity [13]; Liver): 0; HepSE_Combined Scores (Hepatotoxicity [14]; Liver): 0
COC(=O)CCc1ccc(OCC(O)CNC(C)C)cc1 (stereo not drawn) [ESMOLOL],0,0,0,0,0,0,0,0,0,0,0,0,0,0,
CC[C@@H](CO)NC(=O)[C@@H]1C=C2c3cccc4c3c(cn4C)C[C@H]2N(C)C1 [METHYSERGIDE],0,0,0,0,0,0,0,0,0,0,0,0,0,0,
CCCCCCC(C)(C)c1cc(O)c2c(c1)OC(C)(C)C1CCC(=O)CC21 (stereo not drawn) [NABILONE],0,0,0,0,0,0,0,0,0,0,0,0,0,0,
CCOC(=O)[C@H](CCc1ccccc1)N[C@@H](C)C(=O)N1[C@H](C(=O)O)C[C@H]2CCCC[C@@H]21 [TRANDOLAPRIL],0,0,0,0,0,0,0,1,0,0,0,0,1,2,
CCCCCCCC(=O)CC[C@@H]1[C@@H](C/C=C\CCCC(=O)O)[C@@H](O)C[C@H]1O [UNOPROSTONE],0,0,0,0,0,0,0,0,0,0,0,0,0,0,
"Cc1c2oc3c(C)ccc(C(=O)N[C@@H]4C(=O)N[C@H](C(C)C)C(=O)N5CCC[C@H]5C(=O)N(C)CC(=O)N(C)[C@@H](C(C)C)C(=O)O[C@@H]4C)c3nc-2c(C(=O)N[C@@H]2C(=O)N[C@H](C(C)C)C(=O)N3CCC[C@H]3C(=O)N(C)CC(=O)N(C)[C@@H](C(C)C)C(=O)O[C@@H]2C)c(N)c1=O [DACTINOMYCIN] (I: T[dV]P[Sar][NMeV] / II: T[dV]P[Sar][NMeV]; ester I:1-I:C, II:1-II:C; linker I:N-II:N via Actinocin(9to1))",0,0,0,0,0,1,0,0,0,0,0,0,0,1,
CCN(C)C(=O)Oc1cccc([C@H](C)N(C)C)c1 [RIVASTIGMINE],0,1,1,0,0,0,0,0,0,0,0,0,0,2,
NC(=O)c1ncn([C@@H]2O[C@H](CO)[C@@H](O)[C@H]2O)n1 [RIBAVIRIN],1,0,0,0,0,1,0,0,1,0,0,1,0,4,
